One may read the EC50 as the concentration at which the effect is half-maximal.

Square brackets hold non-standard residues; d marks the D form. Ends that are not written are not given here. Peptide text beside a SMILES is read from it. NMeY = CN[C@@H](Cc1ccc(O)cc1)C(=O)O; pS = N[C@@H](COP(=O)(O)O)C(=O)O; hLeu = CC(C)CC[C@H](N)C(=O)O; NMeA = CN[C@@H](C)C(=O)O; Nle = CCCC[C@H](N)C(=O)O; Orn = NCCC[C@H](N)C(=O)O

The first experiment concerns the target T1, PD-1/PD-L1 (Homo sapiens, UniProt Q15116).
T1 construct: this kit uses ectodomains of PD-1 and PD-L1 that are expressed with orthogonal fusion tags (Tag-1 and Tag-2); purchased CisBio (currently Perkin-Elmer, Bedford, MA)
Nature of the experiment: In vitro time-resolved FRET PD-1/PD-L1 binding assay (CisBio kit). The conditions noted are these: CisBio PD-1/PD-L1 binding kit, TR FRET, 96-well, 4-fold serial dilutions in triplicate, freshly dissolved peptides; read-out: IC50, inhibition of PD-1/PD-L1 binding (TR FRET assay). On the procedure: Commercial PD-1/PD-L1 binding assay kit (CisBio, currently Perkin-Elmer, Bedford, MA) for time resolve fluorescent energy transfer (FRET) was used to assess peptides binding to PD-1. The assay for peptide screening was performed in a 96-well format (normal pressure), starting with 4-fold serial dilutions of each peptide in triplicate. No-peptide triplicate wells were used to assess fluorescent energy transfer in the absence of inhibition, and no-PD-1/PD-L1 triplicate wells were used to assess the background fluorescent energy transfer in the absence of PD-1/PD-L1 complexes. More detailed concentration dependences were obtained for selected peptides. Only freshly dissolved peptides were used in the assay. Various QSAR (quantitative structure activity relationship) hypotheses were tested by synthesizing batches of 10–12 peptides. In total, over one hundred candidates in ten iterations were screened for their ability to inhibit in vitro PD-1/PD-L1 binding using the commercial PD-1/PD-L1 binding assay kit (CisBio, currently Perkin-Elmer). Briefly, this kit uses ectodomains of PD-1 and PD-L1 that are expressed with orthogonal fusion tags (Tag-1 and Tag-2). It also includes two antibodies to selectively interact with these tags. The antibody against one tag is labeled with fluorescent moiety, which serves as a donor, while the other antibody is labeled with fluorescent moiety, which serves as an acceptor in fluorescent resonance energy transfer (FRET). When the complex is formed and probed with both anti-Tag-1 and anti-Tag-2 antibodies, donor and acceptor are sufficiently close, and FRET can be detected in a time-resolved (TR) manner. Inhibitors of PD-1/PD-L1 interactions prevent complex formation, leading to a decrease in TR FRET in a concentration-dependent manner, as shown in Figure 2 for four representative peptide inhibitors. Initial fourfold dilutions are exemplified by data for peptides B5.11 and B5.6 (panels A and B); examples of the more detailed follow-up concentration dependences are shown for peptides B2.4 and B2.22 (panels C and D). The potency of the inhibitors is then characterized by IC50, a concentration that inhibits TR FRET by 50%, allowing for a facile comparison of different inhibitors (Figure 2E).
On the technique in general: In TR-FRET formats the signal depends on donor and acceptor labels being close together.
As to Ac-DVIVGAAWDYKY-NH2 [B3.15], the IC50 is 0.13 µM.

Staying with this experiment, now noted: CisBio PD-1/PD-L1 binding kit, TR FRET, 96-well, serial dilutions in triplicate; NI = no inhibition at maximum concentration tested (* 5 μM, ** 50 μM); read-out: EC50 (Supplementary Table S1; inhibition of PD-1/PD-L1 binding by in vitro TR-FRET assay).
In the case of Ac-DVIDGAAWDRKY-NH2 [B8.22], the EC50 was above 5 µM.

Regarding Ac-LVIVGARWDYKR-NH2 [B3.7], the EC50 is 26 µM. Take Ac-LVIVGAAWDYK-NH2 [B3.14]: the EC50 was above 5 µM.

For the molecule Ac-RSMISYGGADDYK-NH2 [B1.1], the concentration for a half-maximal effect (EC50) amounted to 24 µM. As to `CCCC[C@H](NC(=O)[C@@H](NC(=O)[C@H](CC(C)C)NC(=O)[C@@H](NC(=O)[C@H](CCCNC(=N)N)NC(C)=O)C(C)C)C(C)C)C(=O)N[C@H](C(=O)NCC(=O)N[C@@H](C)C(=O)N[C@@H](C)C(=O)N[C@@H](Cc1c[nH]c2ccccc12)C(=O)N[C@@H](CC(=O)O)C(=O)N[C@@H](Cc1ccc(O)cc1)C(=O)N[C@@H](CCCCN)C(=O)N[C@@H](Cc1ccc(O)cc1)C(N)=O)C(C)C` [B2.17] (Ac-RVLV[Nle]VGAAWDYKY-NH2), the EC50 was 4 µM. In the case of `CCCC[C@H](N)C(=O)N[C@H](C(=O)N[C@@H](Cc1c[nH]c2ccccc12)C(=O)N[C@H](C(=O)NCC(=O)N[C@@H](C)C(=O)N[C@@H](C)C(=O)N[C@@H](Cc1c[nH]c2ccccc12)C(=O)N[C@@H](CC(=O)O)C(=O)N[C@@H](Cc1ccc(O)cc1)C(=O)N[C@@H](CCCCN)C(=O)N[C@@H](Cc1ccc(O)cc1)C(=O)O)C(C)C)C(C)C` [B4.15] (H-[Nle]VWVGAAWDYKY-OH; N-terminus and C-terminus assumed), the EC50 is above 5 µM. With Ac-DVIDPAAWDYKY-NH2 [B8.12], the EC50 is above 5 µM. As to `CC[C@H](C)[C@H](NC(=O)[C@@H](NC(=O)[C@H](CC(C)C)NC(C)=O)C(C)C)C(=O)N[C@H](C(=O)NCC(=O)N(C)[C@@H](C)C(=O)N[C@@H](C)C(=O)N[C@@H](Cc1c[nH]c2ccccc12)C(=O)N[C@@H](CC(=O)O)C(=O)N[C@@H](Cc1ccc(O)cc1)C(=O)N[C@@H](CCCCN)C(=O)N(C)[C@@H](Cc1ccc(O)cc1)C(N)=O)C(C)C` [B3.10] (Ac-LVIVG[NMeA]AWDYK[NMeY]-NH2), the EC50 was above 50 µM. On the same count and under the same terms, the same measure for `CC(=O)N[C@@H](CCC(C)C)C(=O)N[C@H](C(=O)N[C@@H](Cc1c[nH]c2ccccc12)C(=O)N[C@H](C(=O)NCC(=O)N[C@@H](C)C(=O)N[C@@H](CCCN)C(=O)N[C@@H](Cc1c[nH]c2ccccc12)C(=O)N[C@@H](CC(=O)O)C(=O)N[C@@H](CCCNC(=N)N)C(=O)N[C@@H](CCCCN)C(=O)N[C@@H](Cc1ccc(O)cc1)C(N)=O)C(C)C)C(C)C` [B3.23] (Ac-[hLeu]VWVGA[Orn]WDRKY-NH2): above 5 µM; for `CCCC[C@H](NC(=O)[C@@H](NC(=O)[C@H](CCCC)NC(=O)[C@@H](NC(=O)[C@@H](N)CCCNC(=N)N)C(C)C)C(C)C)C(=O)N[C@H](C(=O)NCC(=O)N[C@@H](C)C(=O)N[C@@H](C)C(=O)N[C@@H](Cc1c[nH]c2ccccc12)C(=O)N[C@@H](CC(=O)O)C(=O)N[C@@H](Cc1ccc(O)cc1)C(=O)N[C@@H](CCCCN)C(=O)N[C@@H](Cc1ccc(O)cc1)C(=O)O)C(C)C` [B4.8] (H-RV[Nle]V[Nle]VGAAWDYKY-OH; N-terminus and C-terminus assumed): above 5 µM.

Take `CCCC[C@H](NC(C)=O)C(=O)N[C@H](C(=O)N[C@H](C(=O)N[C@H](C(=O)NCC(=O)N[C@@H](C)C(=O)N[C@@H](C)C(=O)N[C@@H](Cc1c[nH]c2ccccc12)C(=O)N[C@@H](CC(=O)O)C(=O)N[C@@H](CCCNC(=N)N)C(=O)N[C@@H](CCCCN)C(=O)N[C@@H](Cc1ccc(O)cc1)C(N)=O)C(C)C)[C@@H](C)CC)C(C)C` [B4.3] (Ac-[Nle]VIVGAAWDRKY-NH2): the EC50 is above 5 µM. Ac-DVLDGAAWDYKY-NH2 [B8.13]: the EC50 was above 5 µM. On the same count and under the same terms, under `CC[C@H](C)[C@H](NC(=O)[C@@H](NC(=O)[C@H](CC(C)C)NC(=O)[C@@H](NC(=O)[C@H](CCCNC(=N)N)NC(C)=O)C(C)C)C(C)C)C(=O)N[C@H](C(=O)NCC(=O)N[C@@H](C)C(=O)N[C@@H](C)C(=O)N[C@@H](CCC(C)C)C(=O)N[C@@H](CC(=O)O)C(=O)N[C@@H](Cc1ccc(O)cc1)C(=O)N[C@@H](CCCCN)C(=O)N[C@@H](Cc1ccc(O)cc1)C(N)=O)C(C)C` [B2.32] (Ac-RVLVIVGAA[hLeu]DYKY-NH2) stands 22 µM. Turning to Ac-RVLVWVGAAWDYKY-NH2 [B2.18], the EC50 was found to be 1 µM.

Consider `CC(=O)N[C@H](CC(=O)O)C(=O)N[C@@H](C)C(=O)N[C@@H](C)C(=O)N[C@@H](Cc1c[nH]c2ccccc12)C(=O)N[C@@H](CC(=O)O)C(=O)N[C@@H](Cc1ccc(O)cc1)C(=O)N[C@@H](CCCCN)C(=O)N[C@@H](Cc1ccc(O)cc1)C(N)=O` [B9.9] (Ac-[dD]AAWDYKY-NH2), for which the EC50 was above 5 µM. Same read-out and setting: the same measure for `CCCC[C@H](NC(C)=O)C(=O)N[C@H](C(=O)N[C@H](C(=O)N[C@H](C(=O)NCC(=O)N[C@@H](C)C(=O)N[C@@H](C)C(=O)N[C@@H](Cc1c[nH]c2ccccc12)C(=O)N[C@@H](CC(=O)O)C(=O)N[C@@H](Cc1ccc(O)cc1)C(=O)N[C@@H](CCCCN)C(=O)N[C@@H](Cc1ccc(O)cc1)C(N)=O)C(C)C)[C@@H](C)CC)C(C)C` [B4.1] (Ac-[Nle]VIVGAAWDYKY-NH2): above 5 µM. Still for that read-out and setting: under Ac-DVIEGAAWDYKY-NH2 [B8.1] stands 2.2 µM; under Ac-LVWVGAAWDRKY-NH2 [B3.19], 5 µM; under `CC[C@H](C)[C@H](NC(=O)[C@H](CCC(C)C)NC(=O)[C@H](CC(=O)O)NC(C)=O)C(=O)N[C@@H](CC(=O)O)C(=O)NCC(=O)N[C@@H](C)C(=O)N[C@@H](C)C(=O)N[C@@H](Cc1c[nH]c2ccccc12)C(=O)N[C@@H](CC(=O)O)C(=O)N[C@@H](Cc1ccc(O)cc1)C(=O)N[C@@H](CCCCN)C(=O)N[C@@H](Cc1ccc(O)cc1)C(N)=O` [B8.18] (Ac-D[hLeu]IDGAAWDYKY-NH2), above 5 µM. Consider Ac-DVIVGSAWDYKY-NH2 [B7.2], for which the EC50 is above 5 µM. Regarding Ac-DVIDGADWDYKY-NH2 [B8.20], the EC50 is above 5 µM. Regarding `CCCC[C@H](NC(=O)[C@@H](NC(=O)[C@@H](N)CCCNC(=N)N)C(C)C)C(=O)N[C@H](C(=O)N[C@H](C(=O)N[C@H](C(=O)NCC(=O)N[C@@H](C)C(=O)N[C@@H](C)C(=O)N[C@@H](Cc1c[nH]c2ccccc12)C(=O)N[C@@H](CC(=O)O)C(=O)N[C@@H](Cc1ccc(O)cc1)C(=O)N[C@@H](CCCCN)C(=O)N[C@@H](Cc1ccc(O)cc1)C(=O)O)C(C)C)[C@@H](C)CC)C(C)C` [B4.7] (H-RV[Nle]VIVGAAWDYKY-OH; N-terminus and C-terminus assumed), the EC50 is above 5 µM. With Ac-RVLVIVGAAWDYKY-NH2 [B2.1], the EC50 is 30 µM.

Regarding Ac-NVIDGAAWDYKY-NH2 [B8.5], the EC50 is above 5 µM.

Regarding Ac-DVVDGAAWDYKY-NH2 [B8.3], the EC50 is above 5 µM.

Regarding Ac-RVWVIVGAAWDYKY-NH2 [B2.12], the EC50 is 20 µM. As to `CCCC[C@H](NC(C)=O)C(=O)N[C@H](C(=O)N[C@@H](Cc1c[nH]c2ccccc12)C(=O)N[C@H](C(=O)NCC(=O)N[C@@H](C)C(=O)N[C@@H](C)C(=O)N[C@@H](Cc1c[nH]c2ccccc12)C(=O)N[C@@H](CC(=O)O)C(=O)N[C@@H](CCCNC(=N)N)C(=O)N[C@@H](CCCCN)C(=O)N[C@@H](Cc1ccc(O)cc1)C(N)=O)C(C)C)C(C)C` [B4.12] (Ac-[Nle]VWVGAAWDRKY-NH2), the EC50 was above 5 µM. As to `CC[C@H](C)[C@H](NC(=O)[C@@H](NC(=O)[C@H](CC(C)C)NC(C)=O)C(C)C)C(=O)N[C@H](C(=O)NCC(=O)N[C@@H](C)C(=O)N[C@@H](C)C(=O)N[C@@H](Cc1c[nH]c2ccccc12)C(=O)N[C@@H](COP(=O)(O)O)C(=O)N[C@@H](Cc1ccc(O)cc1)C(=O)N[C@@H](CCCCN)C(=O)N[C@@H](Cc1ccc(O)cc1)C(N)=O)C(C)C` [B6.2] (Ac-LVIVGAAW[pS]YKY-NH2), the EC50 is above 5 µM. On to Ac-DVWVGAAWDYKY-NH2 [B5.2], for which the EC50 was above 5 µM. Turning to Ac-DVIVGAAWDYKY-NH2 [B3.15], the EC50 turned out to be 0.13 µM. For the molecule LVIVGAAWDYKY [B3.11], the EC50 amounted to 14 µM. As to Ac-LVDVGAAWDYKY-NH2 [B3.16], the EC50 was above 50 µM.

For Ac-DDIVGAAWDYKY-NH2 [B7.6], the EC50 was above 5 µM. For the molecule `CCCC[C@H](NC(=O)[C@H](CC(=O)O)NC(C)=O)C(=O)N[C@H](C(=O)N[C@H](C(=O)NCC(=O)N[C@@H](C)C(=O)N[C@@H](C)C(=O)N[C@@H](Cc1c[nH]c2ccccc12)C(=O)N[C@@H](CC(=O)O)C(=O)N[C@@H](Cc1ccc(O)cc1)C(=O)N[C@@H](CCCCN)C(=O)N[C@@H](Cc1ccc(O)cc1)C(N)=O)C(C)C)[C@@H](C)CC` [B5.7] (Ac-D[Nle]IVGAAWDYKY-NH2), the EC50 was above 5 µM. Same read-out and setting: the same measure for Ac-EAAWDYKY-NH2 [B9.7]: above 50 µM. Turning to RVLVIVGAAWDYKY [B2.28], the EC50 is 11 µM.

The values above are taken from PMC11118832 (Biomolecules, 2024).
